{
  "source": "paper PMC10272112",
  "about": "(Nature Communications, 2023)",
  "key": {"[1]": {"system": "NCOR2 (Homo sapiens)", "sequence (O15379 whole entry)": "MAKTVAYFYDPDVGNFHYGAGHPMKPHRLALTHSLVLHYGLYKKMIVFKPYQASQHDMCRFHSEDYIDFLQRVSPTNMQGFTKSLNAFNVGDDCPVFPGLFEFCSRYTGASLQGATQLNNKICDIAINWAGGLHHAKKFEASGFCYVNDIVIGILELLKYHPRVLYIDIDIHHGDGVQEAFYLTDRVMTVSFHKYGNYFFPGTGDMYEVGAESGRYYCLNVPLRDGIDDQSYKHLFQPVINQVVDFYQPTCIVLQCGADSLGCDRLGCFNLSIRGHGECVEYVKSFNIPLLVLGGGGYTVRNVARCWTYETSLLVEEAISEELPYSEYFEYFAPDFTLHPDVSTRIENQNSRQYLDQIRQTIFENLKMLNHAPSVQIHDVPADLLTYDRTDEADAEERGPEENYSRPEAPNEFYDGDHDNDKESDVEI", "sequence (Q9Y618 whole entry, further chain)": "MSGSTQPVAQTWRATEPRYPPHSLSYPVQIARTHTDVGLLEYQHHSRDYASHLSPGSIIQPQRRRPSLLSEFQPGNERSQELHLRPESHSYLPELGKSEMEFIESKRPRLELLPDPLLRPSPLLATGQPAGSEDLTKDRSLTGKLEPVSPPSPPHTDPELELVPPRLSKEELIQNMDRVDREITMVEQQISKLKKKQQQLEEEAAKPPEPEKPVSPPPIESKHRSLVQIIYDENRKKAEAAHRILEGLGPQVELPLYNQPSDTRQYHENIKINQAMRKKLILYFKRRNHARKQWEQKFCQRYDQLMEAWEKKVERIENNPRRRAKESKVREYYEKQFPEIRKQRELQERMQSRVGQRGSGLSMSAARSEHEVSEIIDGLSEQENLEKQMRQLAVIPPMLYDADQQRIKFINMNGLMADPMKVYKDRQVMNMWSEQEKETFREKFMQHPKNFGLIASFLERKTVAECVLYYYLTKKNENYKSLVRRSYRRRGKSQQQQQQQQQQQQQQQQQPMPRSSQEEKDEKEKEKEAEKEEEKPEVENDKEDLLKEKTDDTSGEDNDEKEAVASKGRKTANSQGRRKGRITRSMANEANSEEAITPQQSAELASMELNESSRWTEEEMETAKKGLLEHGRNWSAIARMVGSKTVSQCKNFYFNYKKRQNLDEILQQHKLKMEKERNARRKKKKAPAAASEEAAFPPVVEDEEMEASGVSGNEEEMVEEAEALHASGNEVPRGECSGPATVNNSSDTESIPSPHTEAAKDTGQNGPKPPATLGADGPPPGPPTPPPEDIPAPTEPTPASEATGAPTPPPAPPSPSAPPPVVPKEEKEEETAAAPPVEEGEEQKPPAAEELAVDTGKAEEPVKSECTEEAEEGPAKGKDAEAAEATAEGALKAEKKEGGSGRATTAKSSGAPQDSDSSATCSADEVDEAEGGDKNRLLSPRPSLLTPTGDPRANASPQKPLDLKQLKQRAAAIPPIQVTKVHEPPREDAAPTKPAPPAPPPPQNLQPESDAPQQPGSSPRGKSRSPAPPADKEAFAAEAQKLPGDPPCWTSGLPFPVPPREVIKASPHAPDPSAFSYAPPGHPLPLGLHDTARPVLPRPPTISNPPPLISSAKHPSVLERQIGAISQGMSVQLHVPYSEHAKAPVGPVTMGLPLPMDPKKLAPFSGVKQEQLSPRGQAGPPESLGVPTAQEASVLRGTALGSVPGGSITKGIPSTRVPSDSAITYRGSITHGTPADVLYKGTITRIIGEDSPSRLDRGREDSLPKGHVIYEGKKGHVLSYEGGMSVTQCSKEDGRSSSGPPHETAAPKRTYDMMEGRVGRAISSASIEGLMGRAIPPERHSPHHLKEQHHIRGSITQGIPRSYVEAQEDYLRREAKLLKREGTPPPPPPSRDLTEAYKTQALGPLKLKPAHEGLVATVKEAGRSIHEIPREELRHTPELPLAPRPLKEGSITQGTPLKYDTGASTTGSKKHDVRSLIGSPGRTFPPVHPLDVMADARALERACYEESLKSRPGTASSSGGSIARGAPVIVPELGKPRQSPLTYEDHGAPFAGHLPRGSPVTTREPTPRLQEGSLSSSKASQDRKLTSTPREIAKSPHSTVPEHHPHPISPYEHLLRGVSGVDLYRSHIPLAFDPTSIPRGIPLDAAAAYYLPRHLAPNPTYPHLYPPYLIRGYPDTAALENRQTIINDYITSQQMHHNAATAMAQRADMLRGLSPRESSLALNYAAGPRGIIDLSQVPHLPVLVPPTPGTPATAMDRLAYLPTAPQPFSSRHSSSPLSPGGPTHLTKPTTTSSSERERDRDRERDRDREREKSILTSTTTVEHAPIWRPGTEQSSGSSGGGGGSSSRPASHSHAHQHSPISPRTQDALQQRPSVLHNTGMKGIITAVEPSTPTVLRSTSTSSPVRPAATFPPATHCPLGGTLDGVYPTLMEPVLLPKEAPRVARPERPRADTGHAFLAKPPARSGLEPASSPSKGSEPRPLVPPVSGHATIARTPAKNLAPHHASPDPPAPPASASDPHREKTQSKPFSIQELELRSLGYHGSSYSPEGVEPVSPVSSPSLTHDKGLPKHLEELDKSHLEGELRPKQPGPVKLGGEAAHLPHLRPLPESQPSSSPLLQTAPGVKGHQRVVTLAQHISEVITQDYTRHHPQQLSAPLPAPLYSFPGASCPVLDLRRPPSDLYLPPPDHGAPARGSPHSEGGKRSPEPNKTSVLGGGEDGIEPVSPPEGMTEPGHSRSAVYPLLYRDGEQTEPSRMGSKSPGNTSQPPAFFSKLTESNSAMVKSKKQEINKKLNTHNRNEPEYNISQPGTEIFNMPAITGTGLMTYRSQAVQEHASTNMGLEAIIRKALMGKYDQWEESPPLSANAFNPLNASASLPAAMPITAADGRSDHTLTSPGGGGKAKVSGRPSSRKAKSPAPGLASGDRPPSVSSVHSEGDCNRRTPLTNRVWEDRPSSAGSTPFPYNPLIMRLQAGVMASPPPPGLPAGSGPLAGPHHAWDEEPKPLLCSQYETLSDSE", "assay": "Chemoproteomic competition pulldown assay (co-competed NCoR partner)", "assay_type": "binding", "details": "iQ, SW620 lysate", "procedure": "(§1) To identify proteins directly bound by lipoic acid, we employed a chemoproteomic competition assay. Briefly, (R/S)-LA was immobilized on sepharose beads via an amidation reaction to form an affinity matrix (abbreviated as iL; Fig. 1a). This affinity matrix can be incubated with cell lysate to pull down potential LA or LM target proteins and identify these targets via bottom-up proteomics. In a competition assay, free LA or LM were incubated with lysate at different concentrations before pulling down and quantifying target proteins. […] (Fig. 1b, see “Methods” for details). […] The lysate buffer used in this assay contains 1 mM DTT to mimic the intracellular reductive milieu and to reduce lipoic acid and LM. […] Additional competition assays performed in lung adenocarcinoma cell A549 lysate also identified HDAC1, HDAC2, and HDAC6 as targets (Supplementary Fig. 1b). Amongst the three cell lines tested, HDACs were the only confidently identified targets across the 1500–3000 proteins quantified in these assays. […] We validated the results by analogous pulldown competition assays using two other affinity matrices prepared via the immobilization of either the HDAC inhibitor Quisinostat (iQ) and an analog of the class IIa HDAC inhibitor Bürli’s 31[14] (iC)[12]. We have previously shown that these affinity matrices specifically bind to the active sites of HDACs and have used them for HDACi selectivity profiling. Indeed, binding of (R/S)-LA and (R/S)-LM to HDAC1, HDAC2, HDAC3, HDAC6, and, to a lesser extent, HDAC8 was confirmed in these assays (Supplementary Fig. 1c, d). No binding to class IIa HDACs or the recently discovered common HDAC inhibitor off-target MBLAC2 was observed (Supplementary Fig. 1e)[12]. […] This observation might reflect electrostatic repulsion between the HDAC10 active site gate-keeper glutamic acid residues[15],[16] and the terminal carboxylic acid of LA.\n(§2) To assess the degree of protein depletion from lysates by the affinity matrix, a second pulldown (PDPD) with fresh beads was performed using the unbound protein fraction from the vehicle control flow through. The beads were washed (1 × 1 mL of lysis buffer without inhibitors and only 0.4% Igepal, 2 × 2 mL of lysis buffer without inhibitors and only 0.2% Igepal), and captured proteins were denatured with 8 M urea buffer, alkylated with 55 mM chloroacetamide and digested with Trypsin according to standard procedures. The resulting peptides were desalted on a C18 filter plate (Sep-Pak® tC18 µElution Plate, Waters), vacuum dried, and stored at −20 °C until LC–MSMS measurement.\n(§3) For the competition assays, relative binding was calculated based on the protein intensity ratio to the DMSO control for every single inhibitor concentration. EC50 values were derived from a four-parameter log-logistic regression with variable slope (constrain: bottom > 0). The obtained EC50 values were multiplied with a protein-dependent correction factor (cf), resulting in the apparent Kd value (Kd^app). The correction factor is determined by calculating the ratio of the protein intensity of two consecutive pulldowns of the vehicle control sample[13]. Targets of the inhibitors were annotated manually according to published procedures[12],[46],[47]. […] Additionally, the number of unique peptides and MSMS counts per condition were taken into account. Positive target binding across several independent experiments performed with different cell lysates further substantiated our confidence for a true positive drug-target binding event."}, "[2]": {"system": "A549 cells", "assay": "CellRox deep red assay for tBuOOH-induced ROS", "details": "for tBuOOH-induced ROS (CellRox), relative to DMSO, Mean / tBuOOH-induced ROS (CellRox), relative to DMSO, replicate values: sheet 4c, DMSO mean = 1", "method": "A549 cells were maintained in DMEM (Sigma) supplemented with 10% fetal bovine serum (Pan Biotech). […] The CellRox assay was performed according to the product guidelines (ThermoFisher). Briefly, cells were treated with lipoic acid, N-acetyl-cysteine (NAC), or vector control (DMSO) for 1 h, followed by a 2 h treatment with 200 µM tert-butyl hydroperoxide, and then stained with 5 µM CellRox Deep Red for 1 h. Cells were washed twice with FluoroBrite DMEM (ThermoFisher) supplemented with 10% FBS before imaging. CellRox Deep Red signal intensity was measured on a Leica DMI 6000 B epifluorescent microscope with a Cy5 filter set. […] Significance was calculated by ANOVA with a post hoc Dunnett’s multiple comparisons test against the DMSO control (GraphPad)."}, "[3]": {"system": "NCOR1 (Homo sapiens)", "assay": "Chemoproteomic competition pulldown assay (co-competed NCoR partner)", "assay_type": "binding", "details": "iQ, SW620 lysate", "procedure": "as §1, §2, §3"}, "[4]": {"system": "ELMSAN1", "assay": "Chemoproteomic competition pulldown assay (co-competed MiDAC partner)", "assay_type": "binding", "procedure": "as §1, §2, §3"}, "[5]": {"system": "DNTTIP1", "assay": "Chemoproteomic competition pulldown assay (co-competed MiDAC partner)", "assay_type": "binding", "procedure": "as §1, §2, §3"}, "[6]": {"details": "iL, MV4-11 lysate, log10 M -3.52288"}, "[7]": {"details": "iL, MV4-11 lysate, log10 M -4.52288"}, "[8]": {"details": "iL, MV4-11 lysate, log10 M -5.52288"}, "[9]": {"details": "iL, MV4-11 lysate, log10 M -6.52288"}, "[10]": {"details": "iQ, SW620 lysate, log10 M -3.52288"}, "[11]": {"details": "iQ, SW620 lysate, log10 M -4.52288"}, "[12]": {"details": "iQ, SW620 lysate, log10 M -5.52288"}, "[13]": {"details": "iQ, SW620 lysate, log10 M -6.52288"}},
  "note": "Values joined by “and” are separate entries in the source; they are usually repeats but may differ in a detail not shown here. Equal values may be shown once.",
  "data": [
    {"smiles": "O=C(O)CCCCC1CCSS1", "note": "(racemic) [(R/S)-LA, (R/S)-lipoic acid]", "values": [
      {"measurement": "relative binding vs DMSO", "setting": "[1]; log10 M -3.52288", "result": 0},
      {"measurement": "relative binding vs DMSO", "setting": "[1]; log10 M -4", "result": 0},
      {"measurement": "relative binding vs DMSO", "setting": "[1]; log10 M -4.52288", "result": 0.568},
      {"measurement": "relative binding vs DMSO", "setting": "[1]; log10 M -5", "result": 0.5133},
      {"measurement": "relative binding vs DMSO", "setting": "[1]; log10 M -5.52288", "result": 0.9883},
      {"measurement": "relative binding vs DMSO", "setting": "[1]; log10 M -6", "result": 0.9231},
      {"measurement": "relative binding vs DMSO", "setting": "[1]; log10 M -6.52288", "result": 1.028},
      {"measurement": "relative binding vs DMSO", "setting": "[1]; log10 M -7", "result": 1.032},
      {"measurement": "levels of ROS (oxidative stress) relative to control", "setting": "[2]; 100 µM drug pre-treatment, 2 h 200 µM tBuOOH", "result": "60–70%"},
      {"measurement": "tBuOOH-induced ROS (CellRox), relative to DMSO, Mean", "setting": "[2]; (R/S)-LA 10 ?M", "result": 0.7284},
      {"measurement": "tBuOOH-induced ROS (CellRox), relative to DMSO, replicate values", "setting": "[2]; (R/S)-LA 10 ?M", "result": "0.6361 and 0.7994 and 0.7496"},
      {"measurement": "tBuOOH-induced ROS (CellRox), relative to DMSO, Mean", "setting": "[2]; (R/S)-LA 30 ?M", "result": 0.7039},
      {"measurement": "tBuOOH-induced ROS (CellRox), relative to DMSO, replicate values", "setting": "[2]; (R/S)-LA 30 ?M", "result": "0.5919 and 0.6862 and 0.8337"},
      {"measurement": "tBuOOH-induced ROS (CellRox), relative to DMSO, Mean", "setting": "[2]; (R/S)-LA 100 ?M", "result": 0.6085},
      {"measurement": "tBuOOH-induced ROS (CellRox), relative to DMSO, replicate values", "setting": "[2]; (R/S)-LA 100 ?M", "result": "0.608 and 0.6603 and 0.5572"},
      {"measurement": "tBuOOH-induced ROS (CellRox), relative to DMSO, Mean", "setting": "[2]; (R/S)-LA 300 ?M", "result": 0.7233},
      {"measurement": "tBuOOH-induced ROS (CellRox), relative to DMSO, replicate values", "setting": "[2]; (R/S)-LA 300 ?M", "result": "0.909 and 0.609 and 0.652"}
    ]},
    {"smiles": "NC(=O)CCCCC1CCSS1", "note": "(racemic) [(R/S)-LM, (R/S)-lipoamide]", "values": [
      {"measurement": "relative binding vs DMSO", "setting": "[3]; log10 M -3.52288", "result": 0.2142},
      {"measurement": "relative binding vs DMSO", "setting": "[3]; log10 M -4", "result": 0.3668},
      {"measurement": "relative binding vs DMSO", "setting": "[3]; log10 M -4.52288", "result": 0.5065},
      {"measurement": "relative binding vs DMSO", "setting": "[3]; log10 M -5", "result": 0.4972},
      {"measurement": "relative binding vs DMSO", "setting": "[3]; log10 M -5.52288", "result": 0.5554},
      {"measurement": "relative binding vs DMSO", "setting": "[3]; log10 M -6", "result": 0.6839},
      {"measurement": "relative binding vs DMSO", "setting": "[3]; log10 M -6.52288", "result": 0.8502},
      {"measurement": "relative binding vs DMSO", "setting": "[3]; log10 M -7", "result": 0.9007},
      {"measurement": "relative binding vs DMSO", "setting": "[4]; [6]", "result": 0.05487},
      {"measurement": "relative binding vs DMSO", "setting": "[4]; iL, MV4-11 lysate, log10 M -4", "result": 0.06564},
      {"measurement": "relative binding vs DMSO", "setting": "[4]; [7]", "result": 0.1508},
      {"measurement": "relative binding vs DMSO", "setting": "[4]; iL, MV4-11 lysate, log10 M -5", "result": 0.5058},
      {"measurement": "relative binding vs DMSO", "setting": "[4]; [8]", "result": 0.6836},
      {"measurement": "relative binding vs DMSO", "setting": "[4]; iL, MV4-11 lysate, log10 M -6", "result": 0.7193},
      {"measurement": "relative binding vs DMSO", "setting": "[4]; [9]", "result": 0.7931},
      {"measurement": "relative binding vs DMSO", "setting": "[4]; iL, MV4-11 lysate, log10 M -7", "result": 0.9008},
      {"measurement": "relative binding vs DMSO", "setting": "[4]; [10]", "result": 0},
      {"measurement": "relative binding vs DMSO", "setting": "[4]; iQ, SW620 lysate, log10 M -4", "result": 0},
      {"measurement": "relative binding vs DMSO", "setting": "[4]; [11]", "result": 0.1474},
      {"measurement": "relative binding vs DMSO", "setting": "[4]; iQ, SW620 lysate, log10 M -5", "result": 0.6579},
      {"measurement": "relative binding vs DMSO", "setting": "[4]; [12]", "result": 0.8569},
      {"measurement": "relative binding vs DMSO", "setting": "[4]; iQ, SW620 lysate, log10 M -6", "result": 0.8861},
      {"measurement": "relative binding vs DMSO", "setting": "[4]; [13]", "result": 0.626},
      {"measurement": "relative binding vs DMSO", "setting": "[4]; iQ, SW620 lysate, log10 M -7", "result": 0.8038},
      {"measurement": "relative binding vs DMSO", "setting": "[5]; [6]", "result": 0.05556},
      {"measurement": "relative binding vs DMSO", "setting": "[5]; iL, MV4-11 lysate, log10 M -4", "result": 0.04853},
      {"measurement": "relative binding vs DMSO", "setting": "[5]; [7]", "result": 0.1384},
      {"measurement": "relative binding vs DMSO", "setting": "[5]; iL, MV4-11 lysate, log10 M -5", "result": 0.4584},
      {"measurement": "relative binding vs DMSO", "setting": "[5]; [8]", "result": 0.6943},
      {"measurement": "relative binding vs DMSO", "setting": "[5]; iL, MV4-11 lysate, log10 M -6", "result": 0.6679},
      {"measurement": "relative binding vs DMSO", "setting": "[5]; [9]", "result": 0.7085},
      {"measurement": "relative binding vs DMSO", "setting": "[5]; iL, MV4-11 lysate, log10 M -7", "result": 0.9632},
      {"measurement": "relative binding vs DMSO", "setting": "[5]; [10]", "result": 0.382},
      {"measurement": "relative binding vs DMSO", "setting": "[5]; iQ, SW620 lysate, log10 M -4", "result": 0.3895},
      {"measurement": "relative binding vs DMSO", "setting": "[5]; [11]", "result": 0.5292},
      {"measurement": "relative binding vs DMSO", "setting": "[5]; iQ, SW620 lysate, log10 M -5", "result": 0.6889},
      {"measurement": "relative binding vs DMSO", "setting": "[5]; [12]", "result": 0.738},
      {"measurement": "relative binding vs DMSO", "setting": "[5]; iQ, SW620 lysate, log10 M -6", "result": 0.858},
      {"measurement": "relative binding vs DMSO", "setting": "[5]; [13]", "result": 0.8975},
      {"measurement": "relative binding vs DMSO", "setting": "[5]; iQ, SW620 lysate, log10 M -7", "result": 0.8297}
    ]}
  ]
}
